Test results taken from PubChem BioAssay AID179 (DTP/NCI, 2004).
Calls of active or inactive are those of the source.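 How the source made its calls: active means compounds giving half or more protection of infected cells from virus-caused growth loss, again on retest; inactive means the rest.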

System: CEM cells HIV-1 protection, formazan growth assay
Assay: NCI AIDS Antiviral Assay
Conditions: for IC50: measured here: growth of uninfected CEM cells
In short: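 Category rules: moderately active means at least 50% protection on retest, and confirmed active means 100% protection reproducibly. The underlying data came from a formazan growth assay in HIV-1-infected CEM cells.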

N#Cc1c(=O)n(-c2ccccc2)c(O)c2c(N)n[nH]c12
EC50: > 200 µM
IC50: 89.1 µM

Nc1nn2cc3c(nc2c1N=Nc1ccc(Cl)cc1)-c1ccccc1CC3
EC50: > 100 µM
IC50: > 100 µM

C/C=C/CC(C)C(OS(=O)(=O)O)C1C(=O)NC(CC)C(=O)N(C)CC(=O)N(C)C(CC(C)C)C(=O)NC(C(C)C)C(=O)N(C)C(CC(C)C)C(=O)NC(C)C(=O)NC(C)C(=O)N(C)C(CC(C)C)C(=O)N(C)C(CC(C)C)C(=O)N(C)C(C(C)C)C(=O)N1C (stereo not drawn)
EC50: 0.661 µM
IC50: 6.61 µM

O=C(O)c1cc(Br)cc(SSc2cc(Br)cc(C(=O)O)c2O)c1O
EC50: 102 µM
IC50: 107 µM

COc1ccccc1N1C(=O)/C(=C\c2cc(OC)c(OC)c(OC)c2)SC1c1ccccc1 (stereo not drawn)
EC50: > 200 µM
IC50: 39.8 µM

CC1=C(C(=O)NCC(C)O)CC(C(=O)NCC(C)O)=C(C)N1 (stereo not drawn)
EC50: > 200 µM
IC50: > 200 µM

C1=Cc2ccccc2/C1=C/c1cc2c3c(c1)CCCN3CCC2
EC50: > 43.7 µM
IC50: > 43.7 µM

CC1(C)S[C@@H]2[C@H](NC(=O)C3(N)CCCC3)C(=O)N2[C@H]1C(=O)O
EC50: > 200 µM
IC50: > 200 µM

CCCCOC(=O)c1ccc(N)cc1
EC50: > 200 µM

Cc1ccc(NC(=O)CC(=O)N2N=C(N(CCC#N)c3cccc(C)c3)CC2c2ccccc2)cc1 (stereo not drawn)
EC50: > 75.9 µM
IC50: > 75.9 µM

Cc1cc(N=C2C=C(Br)C(=O)C(Br)=C2)cc(CN(CC(=O)O)CC(=O)O)c1O
EC50: > 45.7 µM
IC50: 0.501 µM

CC(=C(C(=O)O)C(=O)O)c1cc(-c2cccs2)cc(-c2ccc(Cl)cc2)c1O
EC50: > 200 µM
IC50: 12.3 µM

O=C(NS(=O)(=O)Nc1ccccc1)OC1CCCC1
EC50: > 200 µM
IC50: > 200 µM

CCCCC(C)(C/C=C/[C@@H]1[C@@H](C(O)CCCCCC(=O)OC)C(=O)C[C@H]1O[Si](C)(C)C(C)(C)C)O[Si](C)(C)C (stereo partly drawn)
outcome: inactive

CCCCCCCSc1ccc(/C=C(\C#N)c2ccc(OCCN(CC)CC)cc2)cc1
EC50: > 100 µM
IC50: 1.86 µM

CC1=C(C(=O)NNC(=O)Cc2ccccc2)CC(C(=O)NNC(=O)Cc2ccccc2)=C(C)N1
EC50: > 200 µM
IC50: 36.3 µM

CN1CCN(CCSSCCN2CCN(C)CC2)CC1
EC50: > 200 µM
IC50: > 200 µM

CC1(C)CC(=O)c2c(nc3ccc4ccccc4c3c2-c2ccc(NC(=O)CCC(=O)Nc3ccc(-c4c5c(nc6ccc7ccccc7c46)CC(C)(C)CC5=O)cc3)cc2)C1
EC50: > 100 µM
IC50: > 100 µM

CCCCCCCCCCOCCC(=O)OCC1OC(n2cc(C)c(=O)[nH]c2=O)CC1N=[N+]=[N-] (stereo not drawn)
outcome: active
IC50: 33.9 µM

Cc1cc(C)nc(NS(=O)(=O)c2ccc(NC(=O)c3cccc4c(N)c5ccccc5nc34)cc2)n1
EC50: > 44.7 µM
IC50: > 44.7 µM

CCC(c1ccccc1)C1NC(=S)NC1=O (stereo not drawn)
EC50: > 200 µM
IC50: 138 µM

O=C(NN1C(=O)CSC1c1ccco1)c1ccncc1 (stereo not drawn)
EC50: > 200 µM
IC50: > 200 µM

COc1cc2c(cc1OC)C(=O)/C(=C/c1ccc(Cl)cc1)CC2
EC50: > 200 µM
IC50: > 200 µM

COc1cc(O)c(C(=O)/C=C/c2ccccc2)c(O)c1C1C=C(C)CCC1C(C)C (stereo not drawn)
outcome: inactive

COc1c(C(C)C)cc2c3c1OC(=O)[C@@]31CCCC(C)(C)C1CC2 (stereo partly drawn)
EC50: > 200 µM
IC50: 30.9 µM

CN(C)c1n/c(=N/c2ncn[nH]2)ss1
outcome: inactive

CN(C)c1ccc(/C=C(/C(=O)O)c2csc(-c3nc(/C(=C\c4ccc(N(C)C)cc4)C(=O)O)cs3)n2)cc1
EC50: > 34.7 µM
IC50: > 34.7 µM

C=C(CC[C@@H](O)C(Cl)CO)[Si](C)(C)C (stereo partly drawn)
EC50: > 110 µM
IC50: > 110 µM

COC(=O)CC[C@@H](C)C1CCC2[C@@H]3CC[C@@H]4CC(COS(=O)(=O)c5ccc(C)cc5)CC[C@]4(C)C3CC[C@@]21C (stereo partly drawn)
EC50: > 8.32 µM
IC50: > 8.32 µM

CC(C)C(=O)/C=C/c1ccc(Cl)c(Cl)c1
EC50: > 200 µM
IC50: 11 µM

CC1CC/C(=C\c2ccc(F)cc2)C2=C1C(c1ccc(F)cc1)NC(=S)N2 (stereo not drawn)
EC50: > 200 µM
IC50: 16.6 µM

CC(C(=O)O)C(C)(C)C(=O)O (stereo not drawn)
EC50: > 200 µM
IC50: > 200 µM

CC(C)(C)OC(=O)N1CCCC1C(=O)NCCNc1ccc(NCCNC(=O)C2CCCN2C(=O)OC(C)(C)C)c2c1C(=O)c1ccccc1C2=O (stereo not drawn)
EC50: > 151 µM
IC50: 6.61 µM

COc1ccc(CNc2nc3cc(C(F)(F)F)ccc3nc2C(=O)O)cc1
EC50: > 200 µM
IC50: 38.9 µM

C/C(CC(=O)Nc1cc(C)ccc1C)=N/N=C(N)N
EC50: > 52.5 µM
IC50: > 52.5 µM

CCOc1ccc(N=Cc2ccc3cc(C)ccc3n2)cc1
outcome: inactive

Nc1nc2n(nc[n+]2CCP(=O)(O)O)c(=O)[nH]1
outcome: inactive

O=C(O)[C@@H](NS(=O)(=O)c1ccc([N+](=O)[O-])cc1)c1ccccc1
outcome: inactive

CCOC(=O)/C=C1/Oc2ccccc2C1(C)O (stereo not drawn)
EC50: > 42.7 µM
IC50: > 42.7 µM

COC(=O)[n+]1cc2c3cccc[n+]3c(N(C)C)n2c2ccccc21
EC50: > 200 µM
IC50: 16.6 µM
